The values below are quoted from earlier work in patent US20150079197A1, “MEDICINE COMPRISING COMBINATION OF GENERAL ANESTHETIC AND HYDROGEN” (MARUISHI PHARMACEUTICAL CO., LTD., priority 2012, published 2015).

One data set deals with degenerated neurons. The note with it: neonatal rats, Non Patent Literature 30.

For the compound `FC(F)OC(Cl)C(F)(F)F` (stereo not shown) [isoflurane], in the data set with degenerated neurons, the neurodegeneration entry was “dose-dependent neurodegeneration”. Besides, in the data set on developing brains (cortex, as compared with the control), the “increase in the apoptosis level in the cortex” value is 4 fold. Further, the “increase in the apoptosis level in the hippocampus” value in the data set on developing brains (hippocampus) is given as 4 fold.
Regarding `[N-]=[N+]=O` [nitrous oxide], in the data set on developing brains (alone), the neurodegeneration result is recorded as “no neurodegeneration”.
